Laboratory results reported in US20180057505A1, “BICYCLIC HETEROARYL COMPOUNDS USEFUL AS INHIBITORS OF THE PAR-2 SIGNALING PATHWAY” (VERTEX PHARMACEUTICALS INCORPORATED, priority 2015, published 2018).

Tests used:
Type in all cases: cell-based
[1] = system: Thrombin-stimulated Ca2+ response in HT-29 cells; test: Ca FLIPR TETRA assay, ANTAGONIST mode, activator 1 U/mL Thrombin; conditions: Homo sapiens; HT-29 cells, activator 1 U/mL Thrombin
Method: (§1) Protocol for Testing PAR2 Compounds in ANTAGONIST Mode Using the Ca FLIPR^TETRA Assay (384 Well).
(§2) 23000 HT-29 cells (ATCC# HTB-38) were plated in 384-well black, transparent-flat bottom plates and incubated in 25 uL of 1% FBS/McCoy's media ON at 37° C. under an atmosphere of 5% CO2. The following day, 25 uL FLIPR calcium 5 Molecular Devices assay reagent (Cat: R-8186) was added. Plates were incubated at 37° C. and r. t. for 45 min and 15 min, respectively. Compounds dilutions were prepared in 100% DMSO using a Biomek FX and diluted 20-fold in HBSS and then 5.5 uL was added directly to the cells by the FLIPR^TETRA (10× dilution) using FLIPR Tetra Pipette tips, black, non-sterile, 384 Molecular Devices (Cat: 9000-0764).
(§3) A first read was performed to determine whether the test compounds on their own can activate Ca^2+ responses. The cells were incubated with the compounds for 30 min at r. t. and then read in ANTAGONIST mode in the same plate by stimulating with 6.2 uL of a fixed concentration of the activator: final concentrations 8 μM SLIGKV, 1 U/mL Thrombin, 3.1 U/mL trypsin, or 0.6 μM UTP.

[2] = system: UTP-stimulated Ca2+ response in HT-29 cells; test: Ca FLIPR TETRA assay, ANTAGONIST mode, activator 0.6 μM UTP; conditions: Homo sapiens; for IC50: HT-29 cells, activator 0.6 μM UTP
Method: as §1, §2, §3

[3] = target: T1, PAR2 (HT-29 cells) (Homo sapiens, UniProt P55085); test: Ca FLIPR TETRA assay, ANTAGONIST mode, activator 8 μM SLIGKV; conditions: HT-29 cells, activator 8 μM SLIGKV
T1 construct: host or cells: HT-29
T1 sequence (P55085 26-397): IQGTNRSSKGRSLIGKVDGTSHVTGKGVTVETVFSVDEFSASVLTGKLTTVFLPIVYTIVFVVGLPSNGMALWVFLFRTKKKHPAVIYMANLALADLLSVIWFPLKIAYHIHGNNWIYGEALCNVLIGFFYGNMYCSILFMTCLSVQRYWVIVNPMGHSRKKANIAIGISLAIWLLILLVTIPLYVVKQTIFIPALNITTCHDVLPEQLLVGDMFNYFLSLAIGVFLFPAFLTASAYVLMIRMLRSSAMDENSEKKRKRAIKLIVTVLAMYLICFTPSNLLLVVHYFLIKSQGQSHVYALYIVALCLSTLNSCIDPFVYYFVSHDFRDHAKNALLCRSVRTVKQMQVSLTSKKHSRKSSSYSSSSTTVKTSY
Method: as §1, §2, §3

[4] = target: T1, PAR2 (HT-29 cells); test: Ca FLIPR TETRA assay, ANTAGONIST mode, activator 3.1 U/mL trypsin; conditions: HT-29 cells, activator 3.1 U/mL trypsin
Method: as §1, §2, §3

[5] = Method A: maximal concentration of antagonist 0.1, 1 or 2 μM
[6] = maximal antagonist concentration per Method (A: 0.1, 1 or 2 μM; B: 50 μM)

CC(C)(CC(=O)N1CCN(C(=O)c2cc3nc(-c4ccc(Cl)c(F)c4)cc(C(C)(C)C)c3o2)C(C)(C)C1)C(=O)O [Example I-417]
IC50 [1]: > 1630 nM
IC50 [2]: > 1630 nM
IC50 [3, 5]: 0.2 nM
IC50 [4, 5]: 0.4 nM

CC(C)c1cc(-c2ccc(F)cc2)nc2cc(C(=O)N3CCN(C(=O)C4(O)CCOCC4)[C@@H](C)C3)oc12 [Example I-91]
IC50 [1]: 9400 nM
IC50 [2]: 11000 nM
IC50 [3, 6]: 3300 nM
IC50 [4, 6]: 3800 nM

CC(C)(CCC(=O)N1CCN(C(=O)c2cc3nc(-c4ccc(Cl)c(F)c4)cc(C(C)(C)C)c3o2)C(C)(C)C1)C(=O)O [Example I-367]
IC50 [1]: > 1550 nM
IC50 [2]: > 1550 nM
IC50 [3, 5]: 0.2 nM
IC50 [4, 5]: 0.4 nM

CC(C)(C)c1cc(C2CC3(CCC3)C2)nc2cc(C(=O)N3CCN(C(=O)[C@H]4C[C@@](C)(O)C4)CC3(C)C)oc12 [Example I-296]
IC50 [1]: > 2000 nM
IC50 [2]: > 2000 nM
IC50 [3, 6]: 0.7 nM
IC50 [4, 6]: 0.7 nM

CCc1cc(-c2ccc(F)cc2)nc2cc(C(=O)N3CCN(C(=O)C(C)(C)O)CC3(C)C)oc12 [Example I-4]
IC50 [1]: 8400 nM
IC50 [2]: 12000 nM
IC50 [3, 6]: 210 nM
IC50 [4, 6]: 190 nM

CC(C)(C)c1cc(-c2ccc(Cl)cc2)nc2cc(C(=O)N3CCNC(=O)CC3(C)C)oc12 [Example I-323]
IC50 [1]: > 2000 nM
IC50 [2]: > 2000 nM
IC50 [3, 5]: 12 nM
IC50 [4, 5]: 18 nM

CC(C)c1cc(-c2ccc(F)cc2)nc2cc(C(=O)N3CCN(C(=O)C4CC4(C)C)CC3(C)C)oc12 (centres unmarked) [Example I-22]
IC50 [1]: > 50000 nM
inhibition at 50 µM ([2]; HT-29, @ 50 (μM)): 64%
IC50 [3, 6]: 2.4 nM
IC50 [4, 6]: 2 nM

Cc1nc(N2CCN(C(=O)c3cc4nc(-c5ccc(Cl)cc5)cc(C(C)(C)C)c4o3)C(C)(C)C2)ncc1C(=O)O [Example I-462]
IC50 [1]: 1600 nM
IC50 [2]: 1250 nM
IC50 [3, 5]: 0.6 nM
IC50 [4, 5]: 0.8 nM

CC(C)(C)c1cc(-c2ccc(Cl)cc2)nc2cc(C(=O)N3CCN(c4ccccn4)CC3(C)C)oc12 [Example I-272]
IC50 [1]: > 2000 nM
IC50 [2]: > 2000 nM
IC50 [3, 6]: 21 nM
IC50 [4, 6]: 14 nM

CC(C)(C)c1cc(-c2ccc(Cl)cc2)nc2cc(C(=O)N3CCN(C(=O)CC4(C(=O)O)CCC4)CC3(C)C)oc12 [Example I-337]
IC50 [1]: > 2000 nM
IC50 [2]: > 2000 nM
IC50 [3, 5]: 0.4 nM
IC50 [4, 5]: 0.9 nM

CC(C)(C)c1cc(-c2ccc(Cl)cc2)nc2cc(C(=O)N3CCN(C(=O)c4ccn[nH]4)CC3(C)C)oc12 [Example I-168]
IC50 [1]: > 1000 nM
IC50 [2]: > 1000 nM
IC50 [3, 6]: 2.8 nM
IC50 [4, 6]: 3 nM

CC(C)(C)c1cc(C2CCC(F)(F)CC2)nc2cc(C(=O)N3CCN(C(=O)c4cnccn4)CC3(C)C)oc12 [Example I-230]
IC50 [1]: > 2000 nM
IC50 [2]: > 2000 nM
IC50 [3, 6]: 81 nM
IC50 [4, 6]: 150 nM

CC[C@H](C)c1cc(-c2ccc(F)cc2)nc2cc(C(=O)N3CCNC(=O)C3(C)C)oc12 [Example I-246]
IC50 [1]: > 2000 nM
IC50 [2]: > 2000 nM
IC50 [3, 6]: 11 nM
IC50 [4, 6]: 16 nM

Cc1cc(N2CCN(C(=O)c3cc4nc(-c5ccc(Cl)c(F)c5)cc(C(C)(C)C)c4o3)C(C)(C)C2)ncc1C(=O)O [Example I-400]
IC50 [1]: 1010 nM
IC50 [2]: 810 nM
IC50 [3, 5]: 0.3 nM
IC50 [4, 5]: 0.4 nM

CC1(C(=O)O)CCC(C(=O)N2CCN(C(=O)c3cc4nc(-c5ccc(F)cc5)cc(C(C)(C)C)c4o3)C(C)(C)C2)CC1 (centres unmarked) [Example I-198]
IC50 [1]: > 1000 nM
IC50 [2]: > 1000 nM
IC50 [3, 6]: 0.1 nM
IC50 [4, 6]: 0.8 nM

CC1(c2cc(-c3ccc(F)cc3)nc3cc(C(=O)N4CCN(C(=O)[C@H]5CCCO5)CC4(C)C)oc23)CC1 [Example I-30]
IC50 [1]: 20000 nM
IC50 [2]: 13000 nM
IC50 [3, 6]: 16 nM
IC50 [4, 6]: 14 nM

CC(C)[C@@H](CC(=O)O)C(=O)N1CCN(C(=O)c2cc3nc(-c4ccc(Cl)c(F)c4)cc(C(C)(C)C)c3o2)C(C)(C)C1 [Example I-373]
IC50 [1]: > 1100 nM
IC50 [2]: > 1100 nM
IC50 [3, 5]: 0.6 nM
IC50 [4, 5]: 0.8 nM
